The results in this text go back to patent US20260327214A1, “1,3,4-OXADIAZOLE DERIVATIVE COMPOUNDS AS HISTONE DEACETYLASE 6 INHIBITOR, AND USES THEREOF” (CHONG KUN DANG PHARMACEUTICAL CORP., priority 2022, published 2026).

In one test the target is T1, human recombinant HDAC1 (Homo sapiens, UniProt Q13547).
T1 construct: purchased Enzo Life Science BML-SE456
Put plainly: HDAC1 enzyme activity inhibition test (HDAC Fluorometric Drug Discovery Kit). The following applies: 30° C., 60 minutes, 10 μM substrate. Format: biochemical. The method, then: (§1) The following experiment was conducted to confirm the HDAC6 selectivity of the compound represented by Chemical Formula I of the present invention through the HDAC1 and HDAC6 enzyme activity inhibition test.
(§2) HDAC enzyme activity was measured using HDAC Fluorometric Drug Discovery Kit (BML-AK511, 516) manufactured by Enzo Life Science. For the HDAC1 enzyme activity test, human recombinant HDAC1 (BML-SE456) was used as an enzyme source and Fluor de Lys-®-″SIRT1 (BNL-KI177) was used as a substrate. The 5-fold diluted compound was dispensed in a 96-well plate, 0.3 μg of enzyme and 10 μM substrate were added to each well and reacted at 30° C. for 60 minutes, and Fluor de Lys® Developer II(BML-KI176) was added and reacted for 30 minutes to complete the reaction. Then, the fluorescence value (Ex 360, Em 460) was measured using a multiplate reader (Flexstation 3, Molecular Device). The HDAC6 enzyme was tested using the same protocol as the HDAC1 enzyme activity test method employing human recombinant HDAC6 (382180) from Calbiochem. For the final result, each […] value was calculated using the GraphPad Prism 4.0 program.

Another test addresses T2, human recombinant HDAC6 (Homo sapiens, UniProt Q9UBN7).
T2 construct: purchased Calbiochem 382180
T2 sequence (Q9UBN7 1-1215): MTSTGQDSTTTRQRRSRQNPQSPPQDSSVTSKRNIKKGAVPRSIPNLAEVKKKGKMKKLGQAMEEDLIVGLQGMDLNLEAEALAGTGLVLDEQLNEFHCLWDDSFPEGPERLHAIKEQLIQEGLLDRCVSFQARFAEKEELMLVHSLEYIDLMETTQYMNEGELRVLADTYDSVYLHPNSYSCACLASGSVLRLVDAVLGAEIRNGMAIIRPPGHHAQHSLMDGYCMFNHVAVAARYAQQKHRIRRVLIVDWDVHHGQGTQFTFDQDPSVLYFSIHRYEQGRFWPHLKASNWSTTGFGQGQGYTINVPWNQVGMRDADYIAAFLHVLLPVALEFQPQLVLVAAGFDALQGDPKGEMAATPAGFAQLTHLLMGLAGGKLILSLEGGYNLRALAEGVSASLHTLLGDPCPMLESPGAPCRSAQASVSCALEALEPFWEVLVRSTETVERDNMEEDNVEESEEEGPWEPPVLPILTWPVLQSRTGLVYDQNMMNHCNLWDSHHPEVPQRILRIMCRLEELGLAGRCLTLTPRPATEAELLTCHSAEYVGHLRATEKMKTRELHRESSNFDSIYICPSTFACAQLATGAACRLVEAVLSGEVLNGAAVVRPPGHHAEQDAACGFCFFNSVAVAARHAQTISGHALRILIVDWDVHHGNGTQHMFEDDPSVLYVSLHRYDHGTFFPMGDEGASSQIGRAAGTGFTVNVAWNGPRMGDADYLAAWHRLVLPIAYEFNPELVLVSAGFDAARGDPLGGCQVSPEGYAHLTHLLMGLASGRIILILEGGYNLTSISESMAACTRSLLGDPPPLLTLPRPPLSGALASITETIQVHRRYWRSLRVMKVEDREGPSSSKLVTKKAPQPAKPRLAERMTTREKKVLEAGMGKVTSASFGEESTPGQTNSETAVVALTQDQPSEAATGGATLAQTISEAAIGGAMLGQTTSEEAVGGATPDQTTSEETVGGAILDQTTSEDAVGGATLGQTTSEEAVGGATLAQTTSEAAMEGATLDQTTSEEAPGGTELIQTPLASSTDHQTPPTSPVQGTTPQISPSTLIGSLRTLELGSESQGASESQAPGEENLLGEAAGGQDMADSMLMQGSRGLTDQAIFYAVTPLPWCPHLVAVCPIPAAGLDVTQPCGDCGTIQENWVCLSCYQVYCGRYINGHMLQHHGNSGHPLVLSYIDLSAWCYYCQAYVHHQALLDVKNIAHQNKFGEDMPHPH
The test is described as follows: HDAC6 enzyme activity inhibition test (HDAC Fluorometric Drug Discovery Kit). In kind it is biochemical. The following applies: for HDAC6 selectivity (fold): HDAC6 over HDAC1; for IC50: human recombinant HDAC6, same protocol as HDAC1. The method, then:
as §1, §2

T1 sequence (Q13547 whole entry): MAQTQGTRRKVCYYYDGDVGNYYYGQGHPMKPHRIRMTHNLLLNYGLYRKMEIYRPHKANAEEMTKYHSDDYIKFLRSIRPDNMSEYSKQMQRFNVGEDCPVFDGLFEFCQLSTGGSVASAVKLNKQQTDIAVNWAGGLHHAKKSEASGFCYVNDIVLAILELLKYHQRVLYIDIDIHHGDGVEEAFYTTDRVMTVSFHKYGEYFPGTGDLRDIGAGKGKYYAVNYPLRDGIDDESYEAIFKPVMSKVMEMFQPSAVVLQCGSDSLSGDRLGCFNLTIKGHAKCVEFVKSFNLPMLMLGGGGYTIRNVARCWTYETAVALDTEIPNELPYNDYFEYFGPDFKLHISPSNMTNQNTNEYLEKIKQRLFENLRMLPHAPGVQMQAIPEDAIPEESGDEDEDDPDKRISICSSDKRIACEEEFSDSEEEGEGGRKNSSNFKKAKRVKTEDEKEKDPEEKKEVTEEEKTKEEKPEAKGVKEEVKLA

`O=c1oc(-c2ccc(CN3CCC3)cc2)nn1Cc1ccc(-c2nnc(C(F)F)o2)cn1` [Compound 132, 5-[4-(azetidin-1-ylmethyl)phenyl]-3-[[5-[5-(difluoromethyl)-1,3,4-oxadiazol-2-yl]-2-pyridyl]methyl]-1,3,4-oxadiazol-2-one]: at human recombinant HDAC1, the IC50 is greater than 50000 nM. Besides, on human recombinant HDAC6, the “HDAC6 selectivity (fold)” value was determined as 484 fold and the IC50 is 103 nM.
Turning to `CN(C)Cc1ccc(-c2nn(Cc3ccc(-c4nnc(C(F)F)o4)cn3)c(=S)o2)cc1` [Compound 91, 3-[[5-[5-(difluoromethyl)-1,3,4-oxadiazol-2-yl]-2-pyridyl]methyl]-5-[4-[(dimethylamino)methyl]phenyl]-1,3,4-oxadiazol-2-thione], the IC50 at human recombinant HDAC1 was greater than 50000 nM. In addition, on human recombinant HDAC6, the “HDAC6 selectivity (fold)” value is recorded as 1832 fold and the IC50 turned out to be 27.3 nM.
Turning to `O=C1OCC(c2ccc(-c3ccccn3)s2)=NN1Cc1ccc(-c2nnc(C(F)F)o2)cn1` [Compound 74, 3-[[5-[5-(difluoromethyl)-1,3,4-oxadiazol-2-yl]-2-pyridyl]methyl]-5-[5-(2-pyridyl)-2-thienyl]-6H-1,3,4-oxadiazin-2-one], the IC50 at human recombinant HDAC1 was greater than 50000 nM; on human recombinant HDAC6, 60.4 nM. Further, the “HDAC6 selectivity (fold)” value on human recombinant HDAC6 is listed as 828 fold.
For `O=c1oc(-c2ccc3c(c2)CN(C2CCC2)CC3)nn1Cc1ccc(-c2nnc(C(F)F)o2)cn1` [Compound 14, 5-(2-cyclobutyl-3,4-dihydro-1H-isoquinolin-7-yl)-3-[[5-[5-(difluoromethyl)-1,3,4-oxadiazol-2-yl]-2-pyridyl]methyl]-1,3,4-oxadiazol-2-one] the same measures were greater than 50000 nM, 105 nM and 478 fold.
With `CC(C)N1CCN(c2cccc(-c3nn(Cc4ccc(-c5nnc(C(F)F)o5)cn4)c(=S)o3)n2)CC1` [Compound 101, 3-[[5-[5-(difluoromethyl)-1,3,4-oxadiazol-2-yl]-2-pyridyl]methyl]-5-[6-(4-isopropylpiperazin-1-yl)-2-pyridyl]-1,3,4-oxadiazol-2-thione], the IC50 at human recombinant HDAC1 was greater than 50000 nM; at human recombinant HDAC6 it was 19.7 nM. The “HDAC6 selectivity (fold)” value on human recombinant HDAC6 came out at 2538 fold.
For the compound `CC(C)N1CCN(c2cccc(-c3nn(Cc4ncc(-c5nnc(C(F)F)o5)cc4F)c(=S)o3)n2)CC1` [Compound 104, 3-[[5-[5-(difluoromethyl)-1,3,4-oxadiazol-2-yl]-3-fluoro-2-pyridyl]methyl]-5-[6-(4-isopropylpiperazin-1-yl)-2-pyridyl]-1,3,4-oxadiazol-2-thione], the IC50 at human recombinant HDAC1 is greater than 50000 nM. Further, on human recombinant HDAC6, the “HDAC6 selectivity (fold)” value is on record as 1163 fold and the IC50 is 43 nM.
Turning to `O=c1oc(-c2ccc3cc[nH]c3c2)nn1Cc1ccc(-c2nnc(C(F)F)o2)cn1` [Compound 33, 3-[[5-[5-(difluoromethyl)-1,3,4-oxadiazol-2-yl]-2-pyridyl]methyl]-5-(1H-indole-6-yl)-1,3,4-oxadiazol-2-one], at human recombinant HDAC1, the IC50 is greater than 50000 nM. Also, on human recombinant HDAC6, the “HDAC6 selectivity (fold)” value is 1506 fold and the IC50 is 33.2 nM.
For `O=c1oc(-c2ccc(N3CCNCC3)cc2F)nn1Cc1ccc(-c2nnc(C(F)F)o2)cn1` [Compound 23, 3-[[5-[5-(difluoromethyl)-1,3,4-oxadiazol-2-yl]-2-pyridyl]methyl]-5-(2-fluoro-4-piperazin-1-yl-phenyl)-1,3,4-oxadiazol-2-one] the same measures were greater than 50000 nM, 942 fold and 53.1 nM.
Consider `FC(F)c1nnc(-c2ccc(Cn3nc(-c4csc(CN5CCC5)c4)oc3=S)nc2)o1` [Compound 134, 5-[5-(azetidine-1-ylmethyl)-3-thienyl]-3-[[5-[5-(difluoromethyl)-1,3,4-oxadiazol-2-yl]-2-pyridyl]methyl]-1,3,4-oxadiazol-2-thione], for which, on human recombinant HDAC1, the IC50 was greater than 50000 nM. Further, at human recombinant HDAC6, the “HDAC6 selectivity (fold)” value was determined as 680 fold and the IC50 turned out to be 73.5 nM.
Consider `O=C1OCC(c2cccs2)=NN1Cc1ccc(-c2nnc(C(F)F)o2)cn1` [Compound 69, 3-[[5-[5-(difluoromethyl)-1,3,4-oxadiazol-2-yl]-2-pyridyl]methyl]-5-(2-thienyl)-6H-1,3,4-oxadiazin-2-one], for which the IC50 at human recombinant HDAC1 was greater than 50000 nM. At human recombinant HDAC6, the “HDAC6 selectivity (fold)” value is listed as 434 fold and the concentration for half-maximal inhibition (IC50) worked out at 115 nM.
Regarding `CN1CCC(c2ccc(-c3nn(Cc4ccc(-c5nnc(C(F)F)o5)cn4)c(=O)o3)cc2)CC1` [Compound 29, 3-[[5-[5-(difluoromethyl)-1,3,4-oxadiazol-2-yl]-2-pyridyl]methyl]-5-[4-(1-methyl-4-piperidyl)phenyl]-1,3,4-oxadiazol-2-one], the IC50 at human recombinant HDAC1 is greater than 50000 nM. In addition, at human recombinant HDAC6, the “HDAC6 selectivity (fold)” value came to 745 fold and the IC50 stood at 67.1 nM.
As to `O=c1sc(-c2cccc(C3CCN(C4COC4)CC3)c2F)nn1Cc1ccc(-c2nnc(C(F)F)o2)cn1` [Compound 58, 3-[[5-[5-(difluoromethyl)-1,3,4-oxadiazol-2-yl]-2-pyridyl]methyl]-5-[2-fluoro-3-[1-(oxetane-3-yl)-4-piperidyl]phenyl]-1,3,4-thiadiazol-2-one], the IC50 on human recombinant HDAC1 was greater than 50000 nM. On human recombinant HDAC6, the “HDAC6 selectivity (fold)” value is listed as 643 fold and the IC50 amounted to 77.8 nM.
On to `O=c1oc(-c2ccccc2)nn1Cc1ccc(-c2nnc(C(F)F)o2)cn1` [Compound 1, 3-((5-(5-(difluoromethyl)-1,3,4-oxadiazol-2-yl)pyridin-2-yl)methyl)-5-phenyl-1,3,4-oxadiazol-2 (3H)-one], for which the IC50 on human recombinant HDAC1 is greater than 50000 nM. Besides, at human recombinant HDAC6, the “HDAC6 selectivity (fold)” value was found to be 416 fold and the IC50 worked out at 120 nM.
For the compound `Fc1cc(-c2nnc(C(F)F)o2)cnc1Cn1nc(-c2cccc(CN3CCC3)c2)oc1=S` [Compound 118, 5-[3-(azetidine-1-ylmethyl)phenyl]-3-[[5-[5-(difluoromethyl)-1,3,4-oxadiazol-2-yl]-3-fluoro-2-pyridyl]methyl]-1,3,4-oxadiazol-2-thione], the IC50 on human recombinant HDAC1 was greater than 50000 nM. Besides, at human recombinant HDAC6, the “HDAC6 selectivity (fold)” value worked out at 742 fold and the IC50 came out at 67.4 nM.
With `CC(C)N1CCN(c2cccc(-c3nn(Cc4ccc(-c5nnc(C(F)F)o5)cn4)c(=O)o3)c2)CC1` [Compound 38, 3-[[5-[5-(difluoromethyl)-1,3,4-oxadiazol-2-yl]-2-pyridyl]methyl]-5-[3-(4-isopropylpiperazin-1-yl)phenyl]-1,3,4-oxadiazol-2-one], the IC50 at human recombinant HDAC1 is greater than 50000 nM. On human recombinant HDAC6, the “HDAC6 selectivity (fold)” value worked out at 988 fold and the half-inhibitory concentration (IC50) stood at 50.6 nM.
Take `O=c1oc(-c2cccc3[nH]ccc23)nn1Cc1ncc(-c2nnc(C(F)F)o2)cc1F` [Compound 35, 3-[[5-[5-(difluoromethyl)-1,3,4-oxadiazol-2-yl]-3-fluoro-2-pyridyl]methyl]-5-(1H-indol-4-yl)-1,3,4-oxadiazol-2-one]: on human recombinant HDAC1, the IC50 is greater than 50000 nM. Besides, on human recombinant HDAC6, the “HDAC6 selectivity (fold)” value was 643 fold and the IC50 came to 77.8 nM.
For the compound `Fc1cc(-c2nnc(C(F)F)o2)cnc1Cn1nc(-c2ccc3c(c2)CCN(C2CCC2)C3)oc1=S` [Compound 137, 5-(2-cyclobutyl-3,4-dihydro-1H-isoquinolin-6-yl)-3-[[5-[5-(difluoromethyl)-1,3,4-oxadiazol-2-yl]-3-fluoro-2-pyridyl]methyl]-1,3,4-oxadiazol-2-thione], the values for the IC50 at human recombinant HDAC1 and at human recombinant HDAC6 were greater than 50000 nM and 46.5 nM, respectively. For the same compound, the “HDAC6 selectivity (fold)” value at human recombinant HDAC6 worked out at 1075 fold.
